Laboratory results published in US12129223B2, “Lipids for use in lipid nanoparticle formulations” (Acuitas Therapeutics, Inc., priority 2021, dated 2024).

What was measured:
[1] = Determination of pKa of formulated lipids (TNS fluorescence assay in lipid nanoparticles); type: physicochemical; details: lipid nanoparticles (compound/DSPC/cholesterol/PEG-lipid), lipid formulated in LNP (lipid/DSPC/cholesterol/PEG-lipid), pH at half-maximal intensity
Procedure: As described elsewhere, the pKa of formulated lipids is correlated with the effectiveness of LNPs for delivery of nucleic acids (see Jayaraman et al, Angewandte Chemie, International Edition (2012), 51(34), 8529-8533; Semple et al, Nature Biotechnology 28, 172-176 (2010)). In some embodiments, the preferred range of pKa is ˜5 to ˜7. The pKa of each lipid is determined in lipid nanoparticles using an assay based on fluorescence of 2-(p-toluidino)-6-napthalene sulfonic acid (TNS). Lipid nanoparticles comprising compound of structure (I)/DSPC/cholesterol/PEG-lipid (50/10/38.5/1.5 or 47.5:10:40.7:1.8 mol %) in PBS at a concentration of 0.4 mM total lipid are prepared using the in-line process as described in Example 1. TNS is prepared as a 100 μM stock solution in distilled water. Vesicles are diluted to 24 μM lipid in 2 mL of buffered solutions containing 10 mM HEPES, 10 mM MES, 10 mM ammonium acetate, and 130 mM NaCl, where the pH ranged from 2.5 to 11. An aliquot of the TNS solution is added to give a final concentration of 1 μM and following vortex mixing fluorescence intensity is measured at room temperature in a SLM Aminco Series 2 Luminescence Spectrophotometer using excitation and emission wavelengths of 321 nm and 445 nm. A sigmoidal best fit analysis is applied to the fluorescence data and the pKa is measured as the pH giving rise to half-maximal fluorescence intensity.

human IgG in mouse serum = assay: Immunoglobulin G (IgG) mRNA in vivo evaluation using lipid nanoparticle compositions; parameters: species or system mice; details: LNP with IgG mRNA, tail vein injection, serum 24 hours after administration; for Serum IgG @ 0.3 mg/kg: 0.3 mg mRNA/kg; for Serum IgG @ 1.0 mg/kg: 1.0 mg mRNA/kg
Procedure: (§1) A lipid of structure (I), DSPC, cholesterol and PEG-lipid are solubilized in ethanol at a molar ratio of 50:10:38.5:1.5 or 47.5:10:40.7:1.8. Lipid nanoparticles (LNP) are prepared at a total lipid to mRNA weight ratio of approximately 10:1 to 40:1. Briefly, the mRNA is diluted to 0.2 mg/mL in 10 to 50 mM citrate buffer, pH 4 or 10 to 25 mM acetate buffer, pH 4. Syringe pumps are used to mix the ethanolic lipid solution with the mRNA aqueous solution at a ratio of about 1:5 to 1:3 (vol/vol) with total flow rates above 15 mL/min. The ethanol is then removed and the external buffer replaced with PBS by dialysis. Finally, the lipid nanoparticles are filtered through a 0.2 µm pore sterile filter.
Studies are performed in 6-8 week old CD-1/ICR mice (Envigo) according to guidelines established by an institutional animal care committee (ACC) and the Canadian Council on Animal Care (CCAC). Varying doses of mRNA-lipid nanoparticle are systemically administered by tail vein injection and animals euthanized at a specific time point (e.g., 24 hours) post-administration. The whole blood is collected, and the serum subsequentially separated by centrifuging the tubes of the whole blood at 2000×g for 10 minutes at 4° C. and stored at −80° C. until use for analysis.
For immunoglobulin G (IgG) ELISA (Life Diagnostics Human IgG ELISA kit), the serum samples are diluted at 100 to 15000 folds with 1×diluent solution. 100 μL of diluted serum is dispensed into anti-human IgG coated 96-well plate in duplicate alongside human IgG standards and incubated in a plate shaker at 150 rpm at 25° C. for 45 minutes. The wells are washed 5 times with 1× wash solution using a plate washer (400 μL/well). 100 μL of HRP conjugate is added into each well and incubated in a plate shaker at the same condition above. The wells are washed 5 times again with 1× wash solution using a plate washer (400 μL/well). 100 μL of TMB reagent is added into each well and incubated in a plate shaker at the same condition above. The reaction is stopped by adding 100 μL of Stop solution to each well. The absorbance is read at 450 nm (A450) with a microplate reader. The amount of human IgG in mouse serum is determined by plotting A450 values for the assay standard against human IgG concentration.
(§2) Representative compounds of the disclosure shown in Table 2 were formulated using the following molar ratio: 50% cationic lipid/10% distearoylphosphatidylcholine (DSPC)/38.5% Cholesterol/1.5% PEG lipid 2-[2-(ω-methoxy(polyethyleneglycol2000)ethoxy]-N,N-ditetradecyl acetamide) or 47.5% cationic lipid/10% DSPC/40.7% Cholesterol/1.8% PEG lipid. Relative activity was determined by measuring luciferase expression in the liver 4 hours following administration via tail vein injection as described in Example 1 or by measuring the amount of human IgG in mouse serum as described in example 2. The activity was compared at a dose of 1.0 or 0.5 or 0.3 mg mRNA/kg and expressed as ng luciferase/g liver measured 4 hours after administration, as described in Example 1 or as μg IgG/mL serum measured 24 hours after administration, as described in Example 2. Compound numbers in Table 2 refer to the compound numbers of Table 1.

[2] = test system: luciferase expression in the liver; assay: Luciferase mRNA in vivo evaluation using lipid nanoparticle compositions; parameters: species or system mice; details: LNP with FLuc mRNA, tail vein injection, ng luciferase/g liver 4 hours after administration; for Liver Luc @ 0.3 mg/kg: 0.3 mg mRNA/kg; for Liver Luc @ 1.0 mg/kg: 1.0 mg mRNA/kg
Procedure: as §1
Studies are performed in 6-8 week old female C57BL/6 mice (Charles River) 8-10 week old CD-1 (Harlan) mice (Charles River) according to guidelines established by an institutional animal care committee (ACC) and the Canadian Council on Animal Care (CCAC). Varying doses of mRNA-lipid nanoparticle are systemically administered by tail vein injection and animals euthanized at a specific time point (e.g., 4 hours) post-administration. Liver and spleen are collected in pre-weighed tubes, weights determined, immediately snap frozen in liquid nitrogen and stored at −80° C. until processing for analysis.
For liver, approximately 50 mg is dissected for analyses in a 2 mL FastPrep tubes (MP Biomedicals, Solon OH). ¼″ ceramic sphere (MP Biomedicals) is added to each tube and 500 μL of Glo Lysis Buffer—GLB (Promega, Madison WI) equilibrated to room temperature is added to liver tissue. Liver tissues are homogenized with the FastPrep24 instrument (MP Biomedicals) at 2×6.0 m/s for 15 seconds. Homogenate is incubated at room temperature for 5 minutes prior to a 1:4 dilution in GLB and assessed using SteadyGlo Luciferase assay system (Promega). Specifically, 50 μL of diluted tissue homogenate is reacted with 50 μL of SteadyGlo substrate, shaken for 10 seconds followed by 5 minute incubation and then quantitated using a CentroXS^3 LB 960 luminometer (Berthold Technologies, Germany). The amount of protein assayed is determined by using the BCA protein assay kit (Pierce, Rockford, IL). Relative luminescence units (RLU) are then normalized to total μg protein assayed. To convert RLU to ng luciferase a standard curve is generated with QuantiLum Recombinant Luciferase (Promega).
The FLuc mRNA (L-6107) from Trilink Biotechnologies will express a luciferase protein, originally isolated from the firefly, Photinus pyralis. FLuc is commonly used in mammalian cell culture to measure both gene expression and cell viability. It emits bioluminescence in the presence of the substrate, luciferin. This capped and polyadenylated mRNA is fully substituted with 5-methylcytidine and pseudouridine.
as §2

Structure (SMILES) | pKa [1] | Serum IgG @ 0.3 mg/kg (human IgG in mouse serum) [µg/mL] | Serum IgG @ 1.0 mg/kg (human IgG in mouse serum) [µg/mL] | Liver Luc @ 0.3 mg/kg [2] [ng/g] | Liver Luc @ 1.0 mg/kg [2] [ng/g]
CCCCCCCCCCCCN(CCCCCCCCCCCC)C(=O)CCCCCN(C)CCCCCC(=O)N(CCCCCCCCCCCC)CCCCCCCCCCCC [Compound I-11, 6,6′-(methylazanediyl)bis(N,N-didodecylhexanamide)] | 6.67 | 8.22 ± 0.84 | 47.68 ± 5.26 | – | –
CCCCCCCCCCN(CCCCCCCCCC)C(=O)CCCCCCCN(CCCCCCCC(=O)N(CCCCCCCCCC)CCCCCCCCCC)CCCNc1c(NC)c(=O)c1=O [Compound I-50, 8,8′-((3-((2-(methylamino)-3,4-dioxocyclobut-1-en-1-yl)amino)propyl)azanediyl)bis(N,N-didecyloctanamide)] | 6.73 | 1.32 ± 0.28 | 11.05 ± 2.19 | – | –
CCCCCCCCCCN(CCCCCCCCCC)C(=O)CCCCCCCN(CCCCCCCO)CCCCCCCC(=O)N(CCCCCCCCCC)CCCCCCCCCC [Compound I-45, 8,8′-((7-hydroxyheptyl)azanediyl)bis(N,N-didecyloctanamide)] | 5.96 | 3.03 ± 0.66 | 13.00 ± 2.05 | – | –
CCCCCCCCCCN(CCCCCCCCCC)C(=O)CCCCCCCN(CCCCCCCC(=O)N(CCCCCCCCCC)CCCCCCCCCC)CCOCCO [Compound I-42, 8,8′-((2-(2-hydroxyethoxy)ethyl)azanediyl)bis(N,N-didecyloctanamide)] | 6.66 | 3.13 ± 0.27 | 12.42 ± 3.81 | – | –
CCCCCCCCCCN(CCCCCCCCCC)C(=O)CCCCCCCN(CCCCCCCC(=O)N(CCCCCCCCCC)CCCCCCCCCC)CCCn1ccnc1 [Compound I-48, 8,8′-((3-(1H-imidazol-1-yl)propyl)azanediyl)bis(N,N-didecyloctanamide)] | 6.63 | 1.02 ± 0.20 | 3.40 ± 0.87 | – | –
CCCCCCCCCCN(CCCCCCCCCC)C(=O)CCCCCCCN(CCCCCCCC(=O)N(CCCCCCCCCC)CCCCCCCCCC)CCCn1ccnc1C [Compound I-44, 8,8′-((3-(2-methyl-1H-imidazol-1-yl)propyl)azanediyl)bis(N,N-didecyloctanamide)] | 6.69 | 0.59 ± 0.11 | 1.86 ± 0.27 | – | –
CCCCC/C=C\C/C=C\CCCCCCCC(=O)N(CCCCCC)CCCCCCN(C)CCCCCCN(CCCCCC)C(=O)CCCCCCC/C=C\C/C=C\CCCCC [Compound I-14, (9Z,9′Z,12Z,12′Z)—N,N′-((methylazanediyl)bis(hexane-6,1-diyl))bis(N-hexyloctadeca-9,12-dienamide)] | 6.59 | – | – | 2738 ± 728 | 5735 ± 2364
CCCCCCCCCN(CCCCCCCCC)C(=O)CCCCCCCN(C)CCCCCCCC(=O)N(CCCCCCCCC)CCCCCCCCC [Compound I-58, 8,8′-(methylazanediyl)bis(N,N-dinonyloctanamide)] | 6.19 | – | – | 18664 ± 5438 | 73794 ± 14083
CCCCCCCCCCNC(=O)CCCCN(CCCCCCCC(=O)N(CCCCCCCCCC)CCCCCCCCCC)CCCCCCCC(=O)N(CCCCCCCCCC)CCCCCCCCCC [Compound I-30, 8,8′-((5-(decylamino)-5-oxopentyl)azanediyl)bis(N,N-didecyloctanamide)] | 6.16 | – | – | 6567 ± 1534 | 19625 ± 2173

More lines, main results first:

pKa [1] | Structure (SMILES) | Serum IgG @ 0.3 mg/kg (human IgG in mouse serum) [µg/mL] | Serum IgG @ 1.0 mg/kg (human IgG in mouse serum) [µg/mL] | Liver Luc @ 0.3 mg/kg [2] [ng/g] | Liver Luc @ 1.0 mg/kg [2] [ng/g]
6.81 | CCCCCCCCCCN(CCCCCCCCCC)C(=O)CCCN(CCCCCO)CCCC(=O)N(CCCCCCCCCC)CCCCCCCCCC [Compound I-85, 4,4′-((5-hydroxypentyl)azanediyl)bis(N,N-didecylbutanamide)] | 10.74 ± 2.79 | – | – | –
6.47 | CCCCCCCCCCN(CCCCCCCCCC)C(=O)C(F)CCCCCCN(CCCCCO)CCCCCCC(F)C(=O)N(CCCCCCCCCC)CCCCCCCCCC (centres unmarked) [Compound I-82, 8,8′-((5-hydroxypentyl)azanediyl)bis(N,N-didecyl-2-fluorooctanamide)] | 24.36 ± 4.39 | 239.26 ± 39.80 | – | –
6.12 | CCCCCCCCCCN(CCCCCCCCCC)C(=O)C(F)CCCCCCN(C)CCCCCCC(F)C(=O)N(CCCCCCCCCC)CCCCCCCCCC (centres unmarked) [Compound I-83, 8,8′-(methylazanediyl)bis(N,N-didecyl-2-fluorooctanamide)] | 12.94 ± 2.03 | 142.26 ± 26.31 | – | –
6.41 | CCCCCCCCCCCCN(CCCCCCCCN(CCCCCO)CCCCCCCCN(CCCCCCCCCCCC)C(=O)CCCCCCCCCCC)C(=O)CCCCCCCCCCC [Compound I-68, N,N′-(((5-hydroxypentyl)azanediyl)bis(octane-8,1-diyl))bis(N-dodecyldodecanamide)] | 12.30 ± 2.41 | 121.93 ± 34.85 | – | –
6.53 | CCCCCCCCCCN(CCCCCCCCN(CCCCCO)CCCCCCCC(=O)N(CCCCCCCCCC)CCCCCCCCCC)C(=O)CCCCCCCCC [Compound I-74, N-decyl-N-(8-((8-(didecylamino)-8-oxooctyl)(5-hydroxypentyl)amino)octyl)decanamide] | 50.16 ± 6.58 | 292.44 ± 40.55 | – | –
